As a reminder, the melting point is the temperature of the solid-liquid transition.

Structures can show the parent of a compound that is named as a salt.

The target in one data set is MCH1 receptor (UniProt P97639). Briefly: Displacement of [125I]-Tyr-S36057 binding to MCH1 receptors on brain membrane preparations. The conditions noted are these: rat and/or mouse brain membranes, 50 pM [125I]-Tyr-S36057, room temperature, 30 minutes; read-out: IC50 (concentration that inhibits 50% of the specific binding). (Displacement assays read how much labelled ligand stays bound in the presence of the test substance.)
Protocol: The compounds according to the invention underwent pharmacological tests. Their affinity towards the receptor 1 of Melamin-Concentrating Hormone (MCH), MCH1 was determined by these means.
The tests consisted in measuring the in vitro activity of the compounds of the invention on the MCH1 receptors of MCH.
The measurement of the affinity of the compounds of the invention for the MCH receptors was performed by studying the displacement of the binding of a radiolabelled derivative of MCH to the MCH1 receptors. This study was performed on rat and/or mouse brain membrane preparations according to the protocol described below.
In anticipation of the binding studies, the brains are diluted in HEPES buffer 25 mM (pH: 7.4) containing MgCl2 5 mM, CaCl2 1 mM, homogenized using a Polytron blender for 3 times 20 seconds (speed 25), and are then ultracentrifuged at 22 000 rpm and at +4° C. for 30 minutes. […]
The incubation is performed at room temperature for 30 minutes, and then stopped by rapid addition of ice-cold HEPES buffer 25 mM (pH: 7.4) supplemented with 0.2% bovine serum albumin, and by filtration through GF/B glass fibre filters preincubated for 2 hours in an aqueous 0.1% polyethyleneimine solution. The radioactivity retained on the filters is measured using a Gamma scintillation counter. The non-specific binding is determined in the presence of 1 μM of non-radiolabelled S36057. […]
`COc1ccc(-c2nnc(NC3CCN(Cc4ccccc4)CC3)c3cc(OC)cc(OC)c23)cc1` [Example 2, N-(1-benzylpiperidin-4-yl)-5,7-dimethoxy-4-(4-methoxyphenyl)phthalazin-1-amine]: the IC50 was 72 nM.
Still for that read-out and setting: in the case of `c1ccc(-c2ccc3c(-c4ccccc4)nnc(NC4CCN(Cc5ccc6ccccc6c5)CC4)c3c2)cc1` [Example 42, 4,7-diphenyl-N-[1-(naphthalen-2-ylmethyl)piperidin-4-yl]-phthalazin-1-amine dihydrochloride] it was 360 nM.

Test system in the next data set: not given
Experiment: not given
Conditions: not given
Regarding `COc1ccc(-c2nnc(NC3CCN(Cc4ccc5ccccc5c4)CC3)c3cc(OC)ccc23)c(OC)c1.Cl.Cl` (hydrate or solvate), the melting point amounted to 228 °C.
For the compound `COc1ccc2c(-c3cccnc3)nnc(NC3CCN(Cc4ccc5ccccc5c4)CC3)c2c1.Cl.Cl.Cl` (hydrate or solvate), the melting point came to 225 °C.
Still for that read-out and setting: in the case of `COc1ccc(-c2nnc(NC3CCN(Cc4ccc(CO)cc4)CC3)c3cc(OC)ccc23)cc1.Cl.Cl` (hydrate or solvate) it was 294 °C.
Still for that read-out and setting: for `COc1ccc(-c2nnc(NC3CCN(Cc4ccc(NC=O)cc4)CC3)c3cc(OC)ccc23)cc1.Cl.Cl` (hydrate or solvate) the value was 293 °C.
Still for that read-out and setting: in the case of `COc1ccc(-c2nnc(NC3CCN(Cc4ccc5oc(=O)ccc5c4)CC3)c3cc(OC)ccc23)cc1.Cl.Cl` (hydrate or solvate) it was 293 °C; in that of `COc1ccc(CN2CCC(Nc3nnc(-c4ccc(OC)cc4)c4ccc(OC)cc34)CC2)cc1.Cl.Cl` (hydrate or solvate), 216 °C.
Consider `COc1ccc(-c2nnc(NC3CCN(Cc4ccc(CN5CCCC5)cc4)CC3)c3cc(OC)ccc23)cc1.Cl.Cl.Cl` (hydrate or solvate), for which the melting point turned out to be 222 °C.
With `COc1ccc(-c2nnc(NC3CCN(Cc4ccccc4)CC3)c3cc(OC)cc(OC)c23)cc1` [Compound 11, N-(1-benzylpiperidin-4-yl)-5,7-dimethoxy-4-(4-methoxyphenyl)phthalazin-1-amine], the melting point came out at 168 °C.
Consider `COc1cc(OC)c2c(Cc3ccccc3)nnc(NC3CCN(Cc4ccc5ccccc5c4)CC3)c2c1` [Compound 22, 4-Benzyl-5,7-dimethoxy-N-[1-(naphthalen-2-ylmethyl)piperidin-4-yl]phthalazin-1-amine], for which the melting point was found to be 163 °C.
On to `COc1ccc(-c2nnc(NC3CCN(Cc4ccc(C)c(F)c4)CC3)c3cc(OC)ccc23)cc1` [Compound 74, N-[1-(3-fluoro-4-methylbenzyl)piperidin-4-yl]-7-methoxy-4-(4-methoxyphenyl)phthalazin-1-amine], for which the melting point was 210 °C.
On the same count and under the same terms, in the case of `COc1ccc2c(C)nnc(NC3CCN(Cc4ccc5ccccc5c4)CC3)c2c1` [Compound 95, 7-Methoxy-4-methyl-N-[1-(naphthalen-2-ylmethyl)piperidin-4-yl]phthalazin-1-amine] it was 188 °C; in that of `Fc1ccc(-c2nnc(NC3CCN(Cc4ccc5ccccc5c4)CC3)c3cc(F)ccc23)cc1` [Compound 106, 7-Fluoro-4-(4-fluorophenyl)-N-[1-(naphthalen-2-ylmethyl)piperidin-4-yl]phthalazin-1-amine], 207 °C; in that of `COc1ccc(-c2nnc(NC3CCN(Cc4ccc5[nH]cnc5c4)CC3)c3cc(OC)ccc23)cc1` [Compound 138, N-[1-(1H-benzimidazol-5-ylmethyl)piperidin-4-yl]-7-methoxy-4-(4-methoxyphenyl)phthalazin-1-amine], 267 °C.
`COc1ccc2c(CO)nnc(NC3CCN(Cc4ccc5ccccc5c4)CC3)c2c1` [Example 48, 4-Hydroxymethyl-7-methoxy-N-[1-(naphthalen-2-ylmethyl)piperidin-4-yl]phthalazin-1-amine] registered a melting point of 102 °C.

The subject of another data set is MCH1 receptor.
Experiment: not given
The conditions noted are these: social conflict and forced swimming in rats, maternal separation in guinea pigs; cited from earlier work.
With `COCC1=C(C(=O)OC)[C@H](c2ccc(F)c(F)c2)N(C(=O)NCCCN2CCC(c3cccc(NC(C)=O)c3)CC2)C(=O)N1` [SNAP-7941], the “behavioural profile in animal models” value is “anxiolytic and/or antidepressant profile”.
